Holding throughout (assay type): in vivo
The test system of assay [1] is control mice expressing eYFP in the BLA nociceptive ensemble. Put plainly: Pain behaviors in control mice expressing eYFP in the BLA nociceptive ensemble (no hM4). The method, then: For chemogenetic activity manipulation of BLA neuronal ensembles, we intracranially injected 100 nL of either AAV5-hSyn-DIO-hM4-mCherry (U. North Carolina Viral Core; titre: 3.98×1012), AAV5-hSyn-DIO-mCherry (U. North Carolina Viral Core; titre: 4.72×1012), AAVDJ-Ef1a-DIO-eYFP (Stanford Viral Core; titre: 2.65×1011) into both the left and right BLA at coordinates AP: −1.20 mm, ML: ±3.1 mm, DV: −4.60 mm.
To evaluate mechanical reflexive sensitivity, we used a logarithmically increasing set of 8 von Frey filaments (Stoelting), ranging in gram force from 0.07- to 6.0-g (93). These filaments were applied perpendicular to the plantar hindpaw with sufficient force to cause a slight bending of the filament. A positive response was characterized as a rapid withdrawal of the paw away from the stimulus within 4 s. Using the Up-Down statistical method, the 50% withdrawal mechanical threshold scores were calculated for each mouse and then averaged across the experimental groups. The response frequency was calculated as the number of positive responses out of 10 stimulations, delivered at 30-s intervals.
To evaluate affective-motivational responses evoked by mechanical stimulation, we used three von Frey filaments (0.07-g, 0.4-g, and 2.0-g) and a sharp 25G syringe needle (pin prick) (94). […]
To evaluate affective-motivational responses evoked by thermal stimulation (81), we applied either a single, unilateral 50-μL drop of water (5, 30, or 55° C.) or acetone (evaporative cooling) to the left hindpaw, and the duration of attending behavior was collected for up to 60 s after the stimulation. […] The track was subdivided into 25 temperature zones (4.8-cm D per zone), and we assessed the temperature at the center of each zone by a K-probe thermocouple. […] A video camera placed above the track recorded the position of the mouse within the temperature zones, and videos were later analyzed using a video-tracking software (Etho-vision, Noldus) for duration of zone occupancy, zone visits, distance, velocity, and acceleration.

Assay [2] concerns o-TRAP^hM4 mice. In words: Pain behaviors evoked by optogenetic activation of nociceptors (o-TRAP^hM4). Particulars: noxious transdermal light stimuli. An excerpt: Different AAV serotypes display unique infection tropisms. […] To express the light-sensitive cation channel channelrhodopsin2 (ChR2) in putative primary afferent nociceptors, we intrathecally injected AAV6-hSyn-ChR2(H134R)-eYFP immediately following the i.c. BLA injections of AAV-DIO-DREADD(Gi)-mCherry in TRAP mice while remaining anesthetized under isoflurane (1-2% maintenance). Specifically, we shaved a small patch of fur on the back, wiped with alcohol and Betadine, and then inserted a 33G beveled needle connected to a WPI Nanofil syringe between the L5/L6 vertebrae and through the dura (confirmation by presence of reflexive tail flick). We slowly administered the virus was over 20 s. We retuned mice to their home cage for 4-6 weeks before behavioral verification of ChR2 expression. […] As we sought expression in lumbar DRGs for the purposes of our behavioral experiments that involve sensory testing on the hind limbs, we performed a behavioral screening of each mouse for transdermal light-responsivity when light was applied to the hindpaw. We placed mice inside individual red plastic cylinders (10.16-cm D) on a thin glass surface. […] We measured whether an immediate nociceptive hindpaw reflex and/or pain affective-motivational behaviors (described below) occurred in response to the light indicated ChR2 expression in nociceptors. […]

The test system of assay [3] is noci-TRAP^hM4 mice. In words: Thermal gradient track adaptive avoidance. Particulars: versus saline. The method, then: To evaluate affective-motivational responses evoked by thermal stimulation (81), we applied either a single, unilateral 50-μL drop of water (5, 30, or 55° C.) or acetone (evaporative cooling) to the left hindpaw, and the duration of attending behavior was collected for up to 60 s after the stimulation. Only one drop stimulation was applied on a given testing session. To evaluate adaptive thermal avoidance and temperature preference, we placed mice in the center of a linear Thermal Gradient Track (121.92-cm L×8.25-cm W metal alloy floor; 15.24-cm H black plastic walls), with the floor featuring a temperature gradient along the long axis. Mice freely explored the track for 60 min. To create the temperature gradient, we placed either heating or cooling plates (Bioseb) under the outermost 16.51 cm of the metal floor, with one plate set to 50.0° C. and the other set to 0.0° C., creating an actual floor gradient of 48° C.→5° C., respectively. The track was subdivided into 25 temperature zones (4.8-cm D per zone), and we assessed the temperature at the center of each zone by a K-probe thermocouple. […] A video camera placed above the track recorded the position of the mouse within the temperature zones, and videos were later analyzed using a video-tracking software (Etho-vision, Noldus) for duration of zone occupancy, zone visits, distance, velocity, and acceleration.

Assay [4] deals with ChR2-eYFP+ nociceptor mice. In words: Optical real-time place escape avoidance task. Particulars: CNO 10 mg/kg. The text has this:
To evaluate active avoidance and escape behaviors to optogenetically driven nociception, mice expressing ChR2 in peripheral primary afferent nociceptors freely explored a custom-built two-choice chamber with LED-lit floor panels. A 32×32 LED array (8×8 cm) illuminated half the array in blue light, and the other half in red light (˜0.3 mW/mm^2). A thin glass surface (0.5 cm thick) covered the array floor, upon which we fitted a black plastic chamber (38 cm H) with a center divider wall containing a square passage hole (5-cm D) raised 2.5 cm from the array floor. The entire LED chamber was maintained in a quiet room with low ambient light (˜5 lux). We first placed mice in the red-light chamber and then allowed them to freely explore the chambers for 15 min. A camera placed above the chamber recorded the location of the mouse in the apparatus. We manually scored the videos to determine the time spent by the mouse in each chamber (automated tracking was not possible given the light from the LED floor). Only one mouse was present in the room during all trials.

Setting [5] is: CNO 10 mg/kg, AAVDJ-Ef1α-DIO-eYFP control mice.

The structures appear in SMILES notation.

Consider `C[N+]1([O-])CCN(C2=Nc3cc(Cl)ccc3Nc3ccccc32)CC1` [CNO, clozapine-N-oxide], for which, in assay [1] (setting [5]), the affective-motivational behaviors entry was “Lack of effect” and the reflexive behaviors entry is on record as “Lack of effect”. Moreover, the pain behaviors entry in assay [1] (CNO alone, control mice) was “had no effect”. Besides, in assay [2], the “attending and escape behaviors” value is “reduces”. Also, the “visits to the noxious zones” value in assay [3] (polar ends noxious cold (5 to 17° C.) and hot (42 to 8° C.)) is recorded as “more frequently”. In assay [3] (polar ends noxious cold (5 to 17° C.) and hot (42 to 48° C.)), the “occupancy of the noxious zones” value is reported as “prolonged periods”. In assay [4], the “aversion to the noxious blue light chamber” value was “eliminated the aversion”.

Source of the values: patent US20210220489A1, “AMYGDALAR NEURAL ENSEMBLE THAT ENCODES THE UNPL[…] PAIN” (The Board of Trustees of the Leland Stanford Junior …, priority 2020, published 2021).
